# Reference: patent US20230303570A1, “KINASE INHIBITORS AND USES THEREOF” (ABM Therapeutics Corporation, priority 2020, published 2023)
# Molecular target: HPK1 (MAP4K1) (Homo sapiens, UniProt Q92918)
# Assay: HPK1 (MAP4K1) kinase Lantha screen assay
# Type: biochemical
# Procedure: The effect of the compounds on the activity of HPK1 (MAP4K1) kinase were assessed by Lantha screen assay. • 1. 1×kinase buffer was prepared (50 mM HEPES, pH 7.5, 10 mM MgCl2, 4 mM DT • 2. Compound and assay plates preparation: • 2-1) The compound was diluted to 100× of the final desired highest inhibitor concentration in reaction by 100% DMSO. For example, if a compound was tested at […], then a solution at 500 µM in DMSO was prepared in this step. • 2-2) For each tested compound, the compound was transferred in tubes to one well on a 96-well storage plate and serially diluted by transferring […] of 100% DMSO in the next well and so forth for a total of 6 concentrations. • 2-3) 100 μl of 100% DMSO were added to two empty wells to serve as no compound control and no enzyme control in the same 96-well plate. The resulting plate was labeled as the source plate. • 2-4) 40 μl of compound from source plate were transferred to a new 384-well Echo plate as the intermediate plate. 100 nl of each well from the 384-well Echo plate were transferred to a 384-well assay plate in duplicates. For example, A1 of the 384-well Echo plate was transferred to A1 and A2 of the 384-well plate. A2 of the 384-well Echo plate was transferred to A3 and A4 of the 384-well plate, and so on; • 3. Kinase reaction: a solution of MAP4K1 in 1× kinase buffer at 2-fold the final concentration of each reagent in the assay was prepared. 5 μl of kinase solution was added to each well of the assay plate, except for control wells without enzyme (add 5 μl of 1× kinase buffer instead). The plate was then shaken, then incubated at room temperature for 10 min. A substrate solution of Fluorescein-PKC and ATP in 1× kinase reaction buffer at 2-fold of the final concentration of each reagent desired in the assay was prepared. 5 μl of substrate solution was added to each well of the assay plate to start reaction. The plate was shaken, then covered, and incubated at room temperature for 90 minutes.
# Kinase detection: detection solution of 2-fold of final concentration in Antibody Dilution Buffer was prepared. 10 μl of detection solution was added to each well of the assay plate to stop the reaction. The mixtures were mixed briefly with Centrifuge and incubated at room temperature 60 minutes before reading on a plate reader for fluorescence. Data was collected on Envision with excitation at 340 nm and emission at 520 nm and 495 nm.
# HPK1 (MAP4K1), sequence (Q92918 whole entry, species assumed): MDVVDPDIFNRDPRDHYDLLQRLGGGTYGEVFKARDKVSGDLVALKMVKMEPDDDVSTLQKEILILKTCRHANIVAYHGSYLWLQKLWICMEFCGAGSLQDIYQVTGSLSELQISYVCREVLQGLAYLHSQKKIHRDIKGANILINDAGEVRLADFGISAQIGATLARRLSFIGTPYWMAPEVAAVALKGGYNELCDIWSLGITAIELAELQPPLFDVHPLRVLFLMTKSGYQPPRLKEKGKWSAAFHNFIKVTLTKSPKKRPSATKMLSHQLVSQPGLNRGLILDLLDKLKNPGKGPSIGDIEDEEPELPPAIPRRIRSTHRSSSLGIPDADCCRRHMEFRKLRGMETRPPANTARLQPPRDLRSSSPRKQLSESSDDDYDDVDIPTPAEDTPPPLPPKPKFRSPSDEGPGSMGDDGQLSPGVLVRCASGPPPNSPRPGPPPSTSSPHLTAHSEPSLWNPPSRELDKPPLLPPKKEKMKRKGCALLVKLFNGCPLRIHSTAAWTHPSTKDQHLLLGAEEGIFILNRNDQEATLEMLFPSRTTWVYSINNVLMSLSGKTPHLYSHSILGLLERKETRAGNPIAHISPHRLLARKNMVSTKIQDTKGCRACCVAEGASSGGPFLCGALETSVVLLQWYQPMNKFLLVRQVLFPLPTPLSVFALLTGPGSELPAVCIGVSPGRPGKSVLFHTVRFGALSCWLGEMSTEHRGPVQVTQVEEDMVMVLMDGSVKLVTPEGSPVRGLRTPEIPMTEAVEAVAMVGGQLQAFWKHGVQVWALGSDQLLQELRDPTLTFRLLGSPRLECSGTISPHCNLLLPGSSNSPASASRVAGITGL
row,SMILES,IC50 [nM]
1,"O=C(Nc1ccc(Cl)c(C2=Cc3cnc(NC4COC4)nc3N3CCN=C23)c1)c1cc(C(F)(F)F)ccn1 [Compound 137, N-(4-chloro-3-(2-(oxetan-3-ylamino)-8,9-dihydroimidazo[1′,2′:1,6]pyrido[2,3-d]pyrimidin-6-yl)phenyl)-4-(trifluoromethyl)picolinamide]",< 100
2,"CNc1ncc2c(n1)N1CCN=C1C(c1cc(NC(=O)c3cn(C(C)C)c(=O)n(-c4ccc(F)cc4)c3=O)c(F)cc1C)=C2 [Compound 194, N-(2-fluoro-4-methyl-5-(2-(methylamino)-8,9-dihydroimidazo[1′,2′:1,6]pyrido[2,3-d]pyrimidin-6-yl)phenyl)-3-(4-fluorophenyl)-1-isopropyl-2,4-dioxo-1,2,3,4-tetrahydropyrimidine-5-carboxamide]",100 to 10000
3,"Cc1ccc(NC(=O)c2cc(C(F)(F)F)ccn2)cc1C1=Cc2cnc(NS(C)(=O)=O)nc2N2CCN=C12 [Compound 117, N-(4-methyl-3-(2-(methylsulfonamido)-8,9-dihydroimidazo[1′,2′:1,6]pyrido[2,3-d]pyrimidin-6-yl)phenyl)-4-(trifluoromethyl)picolinamide]",> 10000
4,"CNc1ncc2c(n1)N1CCN=C1C(c1cc(NC(=O)c3ccnc(C(F)(F)F)c3)ccc1C)=C2 [Compound 145, N-(4-methyl-3-(2-(methylamino)-8,9-dihydroimidazo[1′,2′:1,6]pyrido[2,3-d]pyrimidin-6-yl)phenyl)-2-(trifluoromethyl)isonicotinamide]",100 to 10000
5,"Cc1ccncc1Nc1ncc2c(n1)N1CCN=C1C(c1cc(NC(=O)c3cc(C(F)(F)F)ccn3)ccc1C)=C2 [Compound 210, N-(4-methyl-3-(2-((4-methylpyridin-3-yl)amino)-8,9-dihydroimidazo[1′,2′:1,6]pyrido[2,3-d]pyrimidin-6-yl)phenyl)-4-(trifluoromethyl)picolinamide]",< 100
6,"Cc1cc(F)c(NC(=O)c2cccc(C(C)(C)C#N)n2)cc1C1=Cc2cnc(NC3COC3)nc2N2CCN=C12 [Compound 182, 6-(2-cyanopropan-2-yl)-N-(2-fluoro-4-methyl-5-(2-(oxetan-3-ylamino)-8,9-dihydroimidazo[1′,2′:1,6]pyrido[2,3-d]pyrimidin-6-yl)phenyl)picolinamide]",100 to 10000
7,"Cc1cnc(Nc2ncc3c(n2)N2CCN=C2C(c2cc(NC(=O)c4cc(C(F)(F)F)ccn4)ccc2C)=C3)s1 [Compound 232, N-(4-methyl-3-(2-((5-methylthiazol-2-yl)amino)-8,9-dihydroimidazo[1′,2′:1,6]pyrido[2,3-d]pyrimidin-6-yl)phenyl)-4-(trifluoromethyl)picolinamide]",< 100
8,"CNc1ncc2c(n1)N1CCN=C1C(c1cc(NC(=O)c3cnnc(C(F)(F)F)c3)ccc1C)=C2 [Compound 150, N-(4-methyl-3-(2-(methylamino)-8,9-dihydroimidazo[1′,2′:1,6]pyrido[2,3-d]pyrimidin-6-yl)phenyl)-6-(trifluoromethyl)pyridazine-4-carboxamide]",> 10000
9,"CNc1ncc2c(n1)N1CCN=C1C(c1cc(C(=O)Nc3cc(C(F)(F)F)ccn3)c(F)cc1C)=C2 [Compound 277, 2-fluoro-4-methyl-5-(2-(methylamino)-8,9-dihydroimidazo[1′,2′:1,6]pyrido[2,3-d]pyrimidin-6-yl)-N-(4-(trifluoromethyl)pyridin-2-yl)benzamide]",100 to 10000
10,"Clc1ccccc1C1=Cc2cnc(Nc3ccc(N4CCOCC4)nc3)nc2N2CCN=C12 [Compound 100, 6-(2-chlorophenyl)-N-(6-morpholinopyridin-3-yl)-8,9-dihydroimidazo[1′,2′:1,6]pyrido[2,3-d]pyrimidin-2-amine]",100 to 10000
11,"CNc1ncc2c(n1)N1CCN=C1C(c1cc(NC(=O)c3cc(C(F)(F)F)c[nH]c3=O)ccc1C)=C2 [Compound 153, N-(4-methyl-3-(2-(methylamino)-8,9-dihydroimidazo[1′,2′:1,6]pyrido[2,3-d]pyrimidin-6-yl)phenyl)-2-oxo-5-(trifluoromethyl)-1,2-dihydropyridine-3-carboxamide]",100 to 10000
12,"CNc1ncc2c(n1)N1CCN=C1C(c1cc(NC(=O)c3cccc(C(F)(F)F)c3)ncc1C)=C2 [Compound 190, N-(5-methyl-4-(2-(methylamino)-8,9-dihydroimidazo[1′,2′:1,6]pyrido[2,3-d]pyrimidin-6-yl)pyridin-2-yl)-3-(trifluoromethyl)benzamide]",100 to 10000
13,"CNc1nc(C)c2c(n1)N1CCN=C1C(c1cc(NC(=O)c3cc(C(F)(F)F)ccn3)ccc1Cl)=C2 [Compound 123, N-(4-chloro-3-(4-methyl-2-(methylamino)-8,9-dihydroimidazo[1′,2′:1,6]pyrido[2,3-d]pyrimidin-6-yl)phenyl)-4-(trifluoromethyl)picolinamide]",> 10000
14,"COc1ccc(Nc2ncc3c(n2)N2CCN=C2C(c2cc(NC(=O)c4cc(C(F)(F)F)ccn4)ccc2C)=C3)cn1 [Compound 221, N-(3-(2-((6-methoxypyridin-3-yl)amino)-8,9-dihydroimidazo[1′,2′:1,6]pyrido[2,3-d]pyrimidin-6-yl)-4-methylphenyl)-4-(trifluoromethyl)picolinamide]",< 100
15,"Cc1ccc(NC(=O)c2cc(C(F)(F)F)ccn2)cc1C1=Cc2cnc(NC3COC3)nc2N2CCN=C12 [Compound 114, N-(4-methyl-3-(2-(oxetan-3-ylamino)-8,9-dihydroimidazo[1′,2′:1,6]pyrido[2,3-d]pyrimidin-6-yl)phenyl)-4-(trifluoromethyl)picolinamide]",< 100
16,"CNc1ncc2c(n1)N1CCN=C1C(c1cc(NC(=O)c3ccnc(C(C)(C)C#N)c3)ccc1C)=C2 [Compound 162, 2-(2-cyanopropan-2-yl)-N-(4-methyl-3-(2-(methylamino)-8,9-dihydroimidazo[1′,2′:1,6]pyrido[2,3-d]pyrimidin-6-yl)phenyl)isonicotinamide]",< 100
17,"CNc1ncc2c(n1)N1CCN=C1C(c1cc(NS(=O)(=O)c3cccc(C(F)(F)F)c3)ccc1C)=C2 [Compound 283, N-(4-methyl-3-(2-(methylamino)-8,9-dihydroimidazo[1′,2′:1,6]pyrido[2,3-d]pyrimidin-6-yl)phenyl)-3-(trifluoromethyl)benzenesulfonamide]",> 10000
18,"CNc1ncc2c(n1)N1C[C@H](C)N=C1C(c1cc(NC(=O)c3cc(C(F)(F)F)ccn3)ccc1C)=C2 [Compound 126, (S)—N-(4-methyl-3-(8-methyl-2-(methylamino)-8,9-dihydroimidazo[1′,2′:1,6]pyrido[2,3-d]pyrimidin-6-yl)phenyl)-4-(trifluoromethyl)picolinamide]",100 to 10000
19,"Cc1cc(F)c(NC(=O)C2(C(=O)Nc3ccc(F)cc3)CC2)cc1C1=Cc2cnc(NC3COC3)nc2N2CCN=C12 [Compound 344, N-(2-fluoro-4-methyl-5-(2-(oxetan-3-ylamino)-8,9-dihydroimidazo[1′,2′:1,6]pyrido[2,3-d]pyrimidin-6-yl)phenyl)-N-(4-fluorophenyl)cyclopropane-1,1-dicarboxamide]",> 10000
20,"CNc1ncc2c(n1)N1CCN=C1C(c1cc(NC(=O)c3cc(C(F)(F)F)ccn3)c(Cl)cc1C)=C2 [Compound 133, N-(2-chloro-4-methyl-5-(2-(methylamino)-8,9-dihydroimidazo[1′,2′:1,6]pyrido[2,3-d]pyrimidin-6-yl)phenyl)-4-(trifluoromethyl)picolinamide]",< 100
21,"Cc1ccc(Nc2ncc3c(n2)N2CCN=C2C(c2cc(NC(=O)c4cccc(C(F)(F)F)c4)ccc2C)=C3)cn1 [Compound 207, N-(4-methyl-3-(2-((6-methylpyridin-3-yl)amino)-8,9-dihydroimidazo[1′,2′:1,6]pyrido[2,3-d]pyrimidin-6-yl)phenyl)-3-(trifluoromethyl)benzamide]",< 100
22,"CNc1ncc2c(n1)N1CCN=C1C(c1cc(NC(=O)c3nccc(C(F)(F)F)c3Cl)ccc1C)=C2 [Compound 152, 3-chloro-N-(4-methyl-3-(2-(methylamino)-8,9-dihydroimidazo[1′,2′:1,6]pyrido[2,3-d]pyrimidin-6-yl)phenyl)-4-(trifluoromethyl)picolinamide]",100 to 10000
23,"CNc1ncc2c(n1)N1CCN=C1C(c1cc(NC(=O)C3(C(=O)Nc4ccc(F)cc4)CC3)c(F)cc1C)=C2 [Compound 343, N-(2-fluoro-4-methyl-5-(2-(methylamino)-8,9-dihydroimidazo[1′,2′:1,6]pyrido[2,3-d]pyrimidin-6-yl)phenyl)-N-(4-fluorophenyl)cyclopropane-1,1-dicarboxamide]",> 10000
